Measured values: US8748483B2, “Use of substituted pyranone acid derivatives for the treatment of metabolic syndrome” (SANOFI, priority 2007, dated 2014)

Experiments:
[1] = target: T1, GPCR HM74A (niacin receptor) (Homo sapiens, UniProt Q8TDS4); assay: FLIPR in vitro functional assay, intracellular Ca2+ in recombinant HEK293 cells expressing HM74A and Gα6qi4myr; format: cell-based; conditions: 100% = 1 μM niacin
T1 construct: expressed in transfected cells; host or cells: HEK293
Description: Function-testing assays were carried out by means of the FLIPR technique (“Fluorescence Imaging Plate Reader”, Molecular Devices Corp.). For this purpose, agonist-induced changes in the intracellular concentration of Ca^2+ in recombinant HEK293 cells which express both the GPCR HM74A (niacin receptor) and the hybrid G-protein Gα6qi4myr (see, for example, DE patent application 10033353) were determined.
For the investigations, cells were seeded into 96-well microtiter plates (60 000 cells/well) and allowed to grow overnight. The medium was removed and the cells were incubated in buffer which contained the fluorescent dye Fluo-4. After this loading with dye, the cells were washed, test substance was added, and changes in the intracellular Ca^2+ concentration were measured in the FLIPR apparatus. Results have been shown as percentage change relative to the control (0%: no test substance added; 100%:1 μM reference agonist niacin added), used to calculate dose/activity plots and EC50 values determined.

lipolysis = assay: Inhibition of lipolysis in the whole animal after p.o. administration (FFA, glycerol, triglycerides in blood); format: in vivo, Wistar rats
Description: The effect was tested on the whole animal (mouse, rat, hamster or dog), after a fasting period (e.g. of about 16 hours the substance is administered (e.g. p.o., iv., i.p., s.c.) and, with or without additional stimulation of endogenous lipolysis (e.g. by a bolus injection of 2 mg/kg i.p. isoprenaline), the effect of the test substance on lipolysis is determined on the basis of the liberated free fatty acids (FFA), glycerol and triglycerides by obtaining a blood sample (e.g. by retroorbital blood sampling) e.g. 15 min, 30, 60, 120 etc minutes after p.o. administration, and analyzing by standard methods of clinical chemistry (e.g. L. Thomas: Labor and Diagnose, 2nd edition, Medizinische Verlagsgesellschaft, Marburg/L. 1984; ISBN 3-921320-10-9)). The inhibition of lipolysis by the inhibitors is analyzed by comparing with the rate of lipolysis in correspondingly treated control animals.

[2] = 3 mg/kg po, 15 min, Wistar rats
[3] = 3 mg/kg po, 30 min, Wistar rats
[4] = 3 mg/kg po, 60 min, Wistar rats
[5] = 3 mg/kg po, 120 min, Wistar rats
[6] = 3 mg/kg po, time 0, Wistar rats
[7] = 1 mg/kg po, 30 min, Wistar rats
[8] = 1 mg/kg po, 60 min, Wistar rats
[9] = 1 mg/kg po, 120 min, Wistar rats
[10] = 1 mg/kg po, time 0, Wistar rats
[11] = 10 mg/kg po, 30 min, Wistar rats
[12] = 10 mg/kg po, 60 min, Wistar rats
[13] = 10 mg/kg po, 120 min, Wistar rats
[14] = 10 mg/kg po, time 0, Wistar rats

T1 sequence (Q8TDS4 whole entry): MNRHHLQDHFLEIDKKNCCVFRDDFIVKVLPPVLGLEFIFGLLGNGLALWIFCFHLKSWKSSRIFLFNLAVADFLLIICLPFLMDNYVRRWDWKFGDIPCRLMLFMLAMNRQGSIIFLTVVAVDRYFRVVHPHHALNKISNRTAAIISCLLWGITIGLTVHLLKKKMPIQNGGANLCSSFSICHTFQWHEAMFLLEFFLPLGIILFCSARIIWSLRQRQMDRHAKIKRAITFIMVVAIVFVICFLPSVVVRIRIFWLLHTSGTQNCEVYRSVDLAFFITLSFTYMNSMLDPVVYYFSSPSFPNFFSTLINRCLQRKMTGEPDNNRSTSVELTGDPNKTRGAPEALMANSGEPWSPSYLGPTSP

O=C(O)c1cc(=O)cco1 [Example 1]
EC50 [1]: 0.09 µM
lipolysis (reduction in FFA, glycerol and triglycerides) (lipolysis; 3 mg/kg po): distinctly reduced
FFA (lipolysis; [2]): 0.22 mmol/L
Glycerol (lipolysis; [2]): 55 µmol/L
Triglycerides (lipolysis; [2]): 0.48 mmol/L
FFA (lipolysis; [3]): 0.14 mmol/L
Glycerol (lipolysis; [3]): 43 µmol/L
Triglycerides (lipolysis; [3]): 0.28 mmol/L
FFA (lipolysis; [4]): 0.16 mmol/L
Glycerol (lipolysis; [4]): 43 µmol/L
Triglycerides (lipolysis; [4]): 0.21 mmol/L
FFA (lipolysis; [5]): 0.28 mmol/L
Glycerol (lipolysis; [5]): 74 µmol/L
Triglycerides (lipolysis; [5]): 0.25 mmol/L
FFA (lipolysis; [6]): 0.55 mmol/L
Glycerol (lipolysis; [6]): 117 µmol/L
Triglycerides (lipolysis; [6]): 0.53 mmol/L

Cc1ccc(COc2coc(C(=O)O)cc2=O)cc1 [Example 2, 5-(4-methylbenzyloxy)-4-oxo-4H-pyran-2-carboxylic acid]
EC50 [1]: 4.12 µM

O=C(O)c1cc(=O)c(OCc2ccccc2)co1 [Example 3]
EC50 [1]: 28.8 µM

C=CCOc1coc(C(=O)O)cc1=O [Example 4]
EC50 [1]: 29.9 µM

CCCCCOc1coc(C(=O)O)cc1=O [Example 5]
EC50 [1]: 1.2 µM

CCCCOc1coc(C(=O)O)cc1=O [Example 6]
EC50 [1]: 52.9 µM

O=C(O)c1cc(=O)c(OCc2cccc(F)c2)co1 [Example 7]
EC50 [1]: 62.8 µM

O=C(O)c1cc(=O)c(OCc2cccc([N+](=O)[O-])c2)co1 [Example 8]
EC50 [1]: 36.8 µM

O=C(O)c1cc(=O)c(OCc2ccc([N+](=O)[O-])cc2)co1 [Example 9]
EC50 [1]: 43.4 µM

N#Cc1ccc(COc2coc(C(=O)O)cc2=O)cc1 [Example 10]
EC50 [1]: 14.7 µM

Cc1cc(C)cc(COc2coc(C(=O)O)cc2=O)c1 [Example 11]
EC50 [1]: 31.2 µM

O=C(O)c1cc(=O)c(OCc2ccc(F)cc2)co1 [Example 12]
EC50 [1]: 49.5 µM

O=C(O)c1cc(=O)c(OCc2cccc(Cl)c2)co1 [Example 13]
EC50 [1]: 19.5 µM

O=C(O)c1cc(=O)c(OCc2ccccc2F)co1 [Example 14]
EC50 [1]: 12.1 µM

N#Cc1cccc(COc2coc(C(=O)O)cc2=O)c1 [Example 15]
EC50 [1]: 67.1 µM

C/C=C/c1oc(C(=O)O)cc(=O)c1OCc1ccc(C)cc1 [Example 16, 5-(4-methylbenzyloxy)-4-oxo-6-propenyl-4H-pyran-2-carboxylic acid]
EC50 [1]: 0.1 µM

C/C=C/c1oc(C(=O)O)cc(=O)c1OCc1ccc([N+](=O)[O-])cc1 [Example 17]
EC50 [1]: 0.24 µM

C/C=C/c1oc(C(=O)O)cc(=O)c1OCc1ccc(C#N)cc1 [Example 18]
EC50 [1]: 0.36 µM

C/C=C/c1oc(C(=O)O)cc(=O)c1OCCCCC [Example 19]
EC50 [1]: 0.39 µM

C/C=C/c1oc(C(=O)O)cc(=O)c1OCC [Example 20]
EC50 [1]: 0.73 µM

CCCc1oc(C(=O)O)cc(=O)c1OCc1ccc(C)cc1 [Example 21, 5-(4-methylbenzyloxy)-4-oxo-6-propyl-4H-pyran-2-carboxylic acid]
EC50 [1]: 4.4 µM

CCCc1oc(C(=O)O)cc(=O)c1OCc1ccc(C#N)cc1 [Example 22]
EC50 [1]: 45 µM

CCCCCCOc1coc(C(=O)O)cc1=O [Example 23]
EC50 [1]: 34.2 µM

O=C(O)c1cc(=O)c(OCC(F)(F)F)co1 [Example 24]
EC50 [1]: 1 µM

O=C(O)c1cc(=O)c(OCCCF)co1 [Example 25]
EC50 [1]: 0.76 µM

CC(C)COc1coc(C(=O)O)cc1=O [Example 26]
EC50 [1]: 45.3 µM

CC(C)Oc1coc(C(=O)O)cc1=O [Example 27]
EC50 [1]: 4.61 µM

O=C(O)c1cc(=O)c(OCc2ccc(OC(F)F)cc2)co1 [Example 28]
EC50 [1]: 1.81 µM

O=C(O)c1cc(=O)c(OCc2ccc(C(F)(F)F)cc2)co1 [Example 29]
EC50 [1]: 45.1 µM

CCc1ccc(COc2coc(C(=O)O)cc2=O)cc1 [Example 30]
EC50 [1]: 3.24 µM

O=C(O)c1cc(=O)c(OCc2ccc(Cl)cc2)co1 [Example 31]
EC50 [1]: 7.43 µM

CC(C)c1ccc(COc2coc(C(=O)O)cc2=O)cc1 [Example 32]
EC50 [1]: 1.48 µM

O=C(O)c1cc(=O)c(OCc2ccc(OC(F)(F)F)cc2)co1 [Example 33]
EC50 [1]: 22.4 µM

N#Cc1ccc(C(=O)Oc2coc(C(=O)O)cc2=O)cc1 [Example 34]
EC50 [1]: 0.31 µM

Cc1ccc(C(=O)Oc2coc(C(=O)O)cc2=O)cc1 [Example 35]
EC50 [1]: 1.19 µM

C/C=C/c1oc(C(=O)O)cc(=O)c1OCC(F)(F)F [Example 36]
EC50 [1]: 0.07 µM

CCCc1cc(=O)cc(C(=O)O)o1 [Example 37, 6-propyl-4-oxo-4H-pyran-2-carboxylic acid]
EC50 [1]: 66.7 µM

C/C=C/c1oc(C(=O)O)cc(=O)c1CCCC [Example 38]
EC50 [1]: 0.14 µM

COC(=O)/C=C/c1coc(C(=O)O)cc1=O [Example 39]
EC50 [1]: 1.19 µM

CCOC(=O)/C=C/c1coc(C(=O)O)cc1=O [Example 40, 5-((E)-2-ethoxycarbonylvinyl)-4-oxo-4H-pyran-2-carboxylic acid]
EC50 [1]: 1.19 µM

CC(C)OC(=O)/C=C/c1coc(C(=O)O)cc1=O [Example 41]
EC50 [1]: 6.87 µM

C=C(CCC)c1coc(C(=O)O)cc1=O [Example 42]
EC50 [1]: 6.6 µM

CCC/C=C/c1coc(C(=O)O)cc1=O [Example 43]
EC50 [1]: 1.03 µM

Cc1ccc(/C=C/c2coc(C(=O)O)cc2=O)cc1 [Example 44]
EC50 [1]: 4.83 µM

O=C(O)c1cc(=O)c(/C=C/CCc2ccccc2)co1 [Example 45]
EC50 [1]: 10.8 µM

CCCCCc1coc(C(=O)O)cc1=O [Example 46]
EC50 [1]: 0.01 µM

CCCCc1coc(C(=O)O)cc1=O [Example 47]
EC50 [1]: 0.01 µM
lipolysis (reduction in FFA, glycerol and triglycerides) (lipolysis; 1 mg/kg po): distinctly reduced
FFA (lipolysis; [7]): 0.25 mmol/L
Glycerol (lipolysis; [7]): 41 µmol/L
Triglycerides (lipolysis; [7]): 0.25 mmol/L
FFA (lipolysis; [8]): 0.37 mmol/L
Glycerol (lipolysis; [8]): 55 µmol/L
Triglycerides (lipolysis; [8]): 0.37 mmol/L
FFA (lipolysis; [9]): 0.41 mmol/L
Glycerol (lipolysis; [9]): 70 µmol/L
Triglycerides (lipolysis; [9]): 0.41 mmol/L
FFA (lipolysis; [10]): 0.84 mmol/L
Glycerol (lipolysis; [10]): 162 µmol/L
Triglycerides (lipolysis; [10]): 0.84 mmol/L

CCCc1coc(C(=O)O)cc1=O [Example 48, 5-propyl-4-oxo-4H-pyran-2-carboxylic acid]
EC50 [1]: 0.05 µM
lipolysis (reduction in FFA, glycerol and triglycerides) (lipolysis; 10 mg/kg po): distinctly reduced
FFA (lipolysis; [11]): 0.19 mmol/L
Glycerol (lipolysis; [11]): 35 µmol/L
Triglycerides (lipolysis; [11]): 0.36 mmol/L
FFA (lipolysis; [12]): 0.19 mmol/L
Glycerol (lipolysis; [12]): 26 µmol/L
Triglycerides (lipolysis; [12]): 0.25 mmol/L
FFA (lipolysis; [13]): 0.16 mmol/L
Glycerol (lipolysis; [13]): 24 µmol/L
Triglycerides (lipolysis; [13]): 0.27 mmol/L
FFA (lipolysis; [14]): 0.51 mmol/L
Glycerol (lipolysis; [14]): 100 µmol/L
Triglycerides (lipolysis; [14]): 0.41 mmol/L

CC(C)CCc1coc(C(=O)O)cc1=O [Example 49, 5-(3-methylbutyl)-4-oxo-4H-pyran-2-carboxylic acid]
EC50 [1]: 0.21 µM

CCC(C)c1coc(C(=O)O)cc1=O (centres unmarked) [Example 50]
EC50 [1]: 0.16 µM
lipolysis (reduction in FFA, glycerol and triglycerides) (lipolysis; 3 mg/kg po): distinctly reduced
FFA (lipolysis; [2]): 0.34 mmol/L
Glycerol (lipolysis; [2]): 67 µmol/L
Triglycerides (lipolysis; [2]): 0.39 mmol/L
FFA (lipolysis; [3]): 0.43 mmol/L
Glycerol (lipolysis; [3]): 82 µmol/L
Triglycerides (lipolysis; [3]): 0.36 mmol/L
FFA (lipolysis; [4]): 0.50 mmol/L
Glycerol (lipolysis; [4]): 86 µmol/L
Triglycerides (lipolysis; [4]): 0.58 mmol/L
FFA (lipolysis; [5]): 0.52 mmol/L
Glycerol (lipolysis; [5]): 101 µmol/L
Triglycerides (lipolysis; [5]): 0.71 mmol/L
FFA (lipolysis; [6]): 0.64 mmol/L
Glycerol (lipolysis; [6]): 127 µmol/L
Triglycerides (lipolysis; [6]): 0.47 mmol/L

CC(C)Cc1coc(C(=O)O)cc1=O [Example 51]
EC50 [1]: 0.22 µM

CC(C)c1coc(C(=O)O)cc1=O [Example 52]
EC50 [1]: 2.69 µM
